Assay results from ChEMBL document CHEMBL1201862, “PubChem BioAssay data set” (2004).
Calls of active or inactive are those of the source.

How the values were obtained:
[1] = target: T1, Mu-type opioid receptor (Homo sapiens, UniProt P35372); assay type: functional, cell-based;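 as to EC50: U2OS cells with beta-arrestin recruitment to OPRM1 by beta-gal complementation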
[2] = target: 5-hydroxytryptamine receptor 2A (Mus musculus, UniProt P35363); assay type: functional, cell-based;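 also: CHO-K1 cells with tagged receptor and beta-arrestin; agonist potency measured as compound-induced activation of the receptor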
Chain of 5-hydroxytryptamine receptor 2A (P35363 whole entry): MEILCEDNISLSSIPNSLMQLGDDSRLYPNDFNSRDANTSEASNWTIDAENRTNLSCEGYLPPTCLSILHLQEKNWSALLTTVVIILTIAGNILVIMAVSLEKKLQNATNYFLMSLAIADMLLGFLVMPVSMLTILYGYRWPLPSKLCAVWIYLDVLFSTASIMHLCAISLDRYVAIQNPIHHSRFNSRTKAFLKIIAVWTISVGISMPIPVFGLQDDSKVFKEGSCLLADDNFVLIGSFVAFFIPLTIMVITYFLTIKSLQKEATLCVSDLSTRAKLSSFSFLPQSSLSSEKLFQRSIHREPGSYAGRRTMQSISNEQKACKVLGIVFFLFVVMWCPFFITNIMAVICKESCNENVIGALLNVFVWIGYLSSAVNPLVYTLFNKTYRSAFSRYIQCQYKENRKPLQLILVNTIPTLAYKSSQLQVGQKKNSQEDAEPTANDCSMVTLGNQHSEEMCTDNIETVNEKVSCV

[3] = LMP1-driven NF-kB reporter inhibition, dose response, cell-based, luciferase reporter, luminescence, dry powder, set 2 (AID 624376); assay type: functional
[4] = target: fMet-Leu-Phe receptor (Homo sapiens, UniProt P21462); assay: FPR ligands, dose response (AID 519); assay type: functional
Chain of fMet-Leu-Phe receptor (P21462 whole entry): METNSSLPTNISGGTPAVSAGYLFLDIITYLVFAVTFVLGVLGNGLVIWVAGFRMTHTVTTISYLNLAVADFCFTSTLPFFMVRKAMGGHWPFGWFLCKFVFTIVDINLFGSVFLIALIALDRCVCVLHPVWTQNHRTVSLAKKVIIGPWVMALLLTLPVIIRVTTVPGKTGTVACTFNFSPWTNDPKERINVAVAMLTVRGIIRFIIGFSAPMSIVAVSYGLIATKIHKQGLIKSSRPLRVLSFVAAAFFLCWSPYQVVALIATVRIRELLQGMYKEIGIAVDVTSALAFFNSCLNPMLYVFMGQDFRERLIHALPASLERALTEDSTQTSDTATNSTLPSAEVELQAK

[5] = target: Beta-lactamase (Salmonella choleraesuis (strain SC-B67), UniProt Q5J463); assay: Epi-absorbance-based counterscreen for selective VIM-2 inhibitors: dose response biochemical high throughput screening assay to identify inhibitors of TEM-1 serine-beta-lactamase.
Chain of Beta-lactamase (Salmonella choleraesuis (strain SC-B67), UniProt Q5J463) (Q5J463 whole entry): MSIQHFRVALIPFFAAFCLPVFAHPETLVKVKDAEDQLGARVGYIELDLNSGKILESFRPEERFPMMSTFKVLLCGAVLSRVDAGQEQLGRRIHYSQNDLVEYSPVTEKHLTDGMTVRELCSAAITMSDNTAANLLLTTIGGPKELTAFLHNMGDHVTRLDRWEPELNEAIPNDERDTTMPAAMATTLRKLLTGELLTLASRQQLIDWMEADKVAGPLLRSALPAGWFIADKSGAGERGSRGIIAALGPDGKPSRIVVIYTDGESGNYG

[6] = target: T2, Leucine aminopeptidase (Plasmodium falciparum 3D7, UniProt Q8IL11); assay: P. falciparum M17LAP inhibitors, primary screen, biochemical, fluorogenic H-Leu-NHMec substrate, 1536-well (AID 1619); assay type: functional
T2 sequence (Q8IL11 whole entry): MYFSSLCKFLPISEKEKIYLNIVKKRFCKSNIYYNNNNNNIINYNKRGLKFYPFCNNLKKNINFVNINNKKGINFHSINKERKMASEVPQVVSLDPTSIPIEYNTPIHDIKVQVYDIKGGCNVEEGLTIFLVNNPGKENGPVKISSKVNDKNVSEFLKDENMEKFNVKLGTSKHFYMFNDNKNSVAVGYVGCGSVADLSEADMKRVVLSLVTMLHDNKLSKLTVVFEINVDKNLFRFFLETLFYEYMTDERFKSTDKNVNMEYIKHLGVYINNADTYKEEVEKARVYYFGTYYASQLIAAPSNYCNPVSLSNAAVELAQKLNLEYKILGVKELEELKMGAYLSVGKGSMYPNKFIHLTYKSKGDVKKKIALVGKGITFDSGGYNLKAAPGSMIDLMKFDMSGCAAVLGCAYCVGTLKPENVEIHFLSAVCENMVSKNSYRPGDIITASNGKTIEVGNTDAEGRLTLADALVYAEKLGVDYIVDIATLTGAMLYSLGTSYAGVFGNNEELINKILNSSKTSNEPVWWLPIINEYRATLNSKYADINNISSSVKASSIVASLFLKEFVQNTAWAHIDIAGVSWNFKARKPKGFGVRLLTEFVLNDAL

[7] = target: T3, Beta-lactamase (Pseudomonas aeruginosa, UniProt Q79MP6); assay: IMP-1 metallo-beta-lactamase inhibitors, dose response, selectivity assay for VIM-2 inhibitor project, biochemical, epi-absorbance (AID 1920)
T3 sequence (Q79MP6 whole entry): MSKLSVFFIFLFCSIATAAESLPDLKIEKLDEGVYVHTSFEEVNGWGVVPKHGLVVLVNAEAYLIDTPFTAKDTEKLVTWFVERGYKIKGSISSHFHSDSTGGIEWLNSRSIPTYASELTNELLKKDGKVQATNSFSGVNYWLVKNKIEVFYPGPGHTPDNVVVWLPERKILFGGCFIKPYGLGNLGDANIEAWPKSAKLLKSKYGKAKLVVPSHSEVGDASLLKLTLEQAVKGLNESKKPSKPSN

[8] = target: T3, Beta-lactamase; assay: […] counterscreen for selective VIM-2 inhibitors: dose response biochemical high throughput screening assay to identify inhibitors of IMP-1 metallo-beta-lactamase.
[9] = target: T4, Heat shock factor protein 1 (Mus musculus, UniProt P38532); assay: HSF1 potentiators in luciferase reporter cells, confirmation, cell-based, NIH3T3, luminescence, dose retest (AID 435004); assay type: functional;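 also: stress induced by proteasome inhibitor MG132 added 30 min after compound; luciferase reporter driven by HSF1 response element in NIH3T3 cells; actives raise luminescence as potentiators of the MG132 stress response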
T4 sequence (P38532 whole entry): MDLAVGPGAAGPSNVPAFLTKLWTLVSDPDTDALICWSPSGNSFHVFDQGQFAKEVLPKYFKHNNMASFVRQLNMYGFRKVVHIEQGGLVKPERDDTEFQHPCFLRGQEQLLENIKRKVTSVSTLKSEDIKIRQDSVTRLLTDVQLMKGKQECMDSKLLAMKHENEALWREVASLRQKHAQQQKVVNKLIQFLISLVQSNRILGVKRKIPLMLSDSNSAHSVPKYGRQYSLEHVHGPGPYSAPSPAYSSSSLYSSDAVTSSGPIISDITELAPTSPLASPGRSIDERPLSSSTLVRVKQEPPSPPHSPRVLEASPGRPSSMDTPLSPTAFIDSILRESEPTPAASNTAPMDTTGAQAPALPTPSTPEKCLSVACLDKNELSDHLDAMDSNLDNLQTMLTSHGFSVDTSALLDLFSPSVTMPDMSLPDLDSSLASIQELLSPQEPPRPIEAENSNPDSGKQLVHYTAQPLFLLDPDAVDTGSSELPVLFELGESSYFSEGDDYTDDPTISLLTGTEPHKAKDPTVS

[10] = miR-122 activators in hepatoma reporter cells, dose response, cell-based, Huh7 psiCHECK-miR122, Renilla luciferase, cherry-picked (AID 651956); assay type: functional;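 also: huh7 hepatoma cells stably carrying a psiCHECK-2 miR-122 sensor plasmid; renilla luciferase signal reporting endogenous miR-122 activity after 48 h compound exposure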
[11] = lymphoblastoid cell cytotoxicity, dose response, cytotoxicity control, plate reader, dry powder, set 2 (AID 624367); assay type: functional
[12] = HEK293T cytotoxicity, dose response, cytotoxicity control for miR-122 modulator project, cell-based, inhibitor set, cherry-pick, set 2 (AID 720697); assay type: functional
[13] = target: T5, Low molecular weight phosphotyrosine protein phosphatase (Homo sapiens, UniProt P24666); assay type: functional; conditions: read-out: IC50_Mean
T5 sequence (P24666 whole entry): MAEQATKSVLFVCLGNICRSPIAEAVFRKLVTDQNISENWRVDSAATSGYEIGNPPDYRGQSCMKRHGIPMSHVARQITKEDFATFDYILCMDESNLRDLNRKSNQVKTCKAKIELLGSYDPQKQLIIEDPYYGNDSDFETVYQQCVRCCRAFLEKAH

[14] = target: T5, Low molecular weight phosphotyrosine protein phosphatase; assay type: functional; conditions: read-out: IC50_Mean; remark: listed apart in the source
[15] = cells; assay type: functional, cell-based
[16] = target: T6, Nuclear receptor subfamily 0 group B member 1 (Homo sapiens, UniProt P51843); assay type: functional, cell-based;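 also: HEK293T cells transfected with SF-1 and DAX-1 plus StAR promoter luciferase reporter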
T6 sequence (P51843 whole entry): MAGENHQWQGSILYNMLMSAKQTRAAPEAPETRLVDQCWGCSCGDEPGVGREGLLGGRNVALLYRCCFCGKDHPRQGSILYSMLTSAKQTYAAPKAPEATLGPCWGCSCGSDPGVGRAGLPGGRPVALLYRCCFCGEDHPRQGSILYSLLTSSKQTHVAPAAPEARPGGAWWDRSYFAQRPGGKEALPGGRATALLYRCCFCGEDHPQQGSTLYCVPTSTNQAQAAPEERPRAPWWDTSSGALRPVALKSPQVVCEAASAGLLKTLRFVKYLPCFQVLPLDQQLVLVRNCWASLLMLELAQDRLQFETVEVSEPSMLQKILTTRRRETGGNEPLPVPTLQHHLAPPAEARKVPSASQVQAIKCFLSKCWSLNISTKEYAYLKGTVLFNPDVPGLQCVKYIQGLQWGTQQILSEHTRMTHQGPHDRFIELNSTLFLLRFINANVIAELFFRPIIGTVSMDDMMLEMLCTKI

[17] = LGR2 antagonists, dose response, cell-based, HEK293, CRE-luciferase reporter, cherry pick, set 2 (AID 743343); assay type: functional;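 also: transfected cells were stimulated with diluted bursicon conditioned medium after compound addition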
[18] = MC4R antagonists, dose response, counter-screen for LGR2 antagonist project, cell-based, plate reader, cherry pick (AID 743444); assay type: functional;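 also: transfected HEK 293 cells stimulated with alpha-MSH peptide; potency of inhibitors of the alpha-MSH evoked signal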
[19] = HEK293 cell cytotoxicity, dose response, cytotoxicity control, plate reader, cherry-picked samples (AID 743446); assay type: functional, cell-based
[20] = target: ATP-dependent translocase ABCB1 (Homo sapiens, UniProt P08183); assay: ABCB1 efflux pump inhibitor potency, dose response, Jurkat-DNR cells, JC-1, flow cytometry (AID 1689); assay type: functional
[21] = test system: HEK293; assay: NOD1 signaling inhibitors, primary screen, cell-based, luminescence, uHTS (AID 1578); assay type: functional; conditions: Homo sapiens
[22] = test system: HEK293; assay: cells; assay type: functional, cell-based; conditions: Homo sapiens
[23] = test system: HEK293; assay: cells; assay type: functional, cell-based; conditions: Homo sapiens; remark: listed apart in the source
[24] = target: Nucleotide-binding oligomerization domain-containing protein 2 (Homo sapiens, UniProt Q9HC29); assay: NOD2 signaling inhibitors, cell-based, luminescence, uHTS, HEK293 (AID 1566); assay type: functional
Chain of Nucleotide-binding oligomerization domain-containing protein 2 (Q9HC29 whole entry, the tested form may be a part): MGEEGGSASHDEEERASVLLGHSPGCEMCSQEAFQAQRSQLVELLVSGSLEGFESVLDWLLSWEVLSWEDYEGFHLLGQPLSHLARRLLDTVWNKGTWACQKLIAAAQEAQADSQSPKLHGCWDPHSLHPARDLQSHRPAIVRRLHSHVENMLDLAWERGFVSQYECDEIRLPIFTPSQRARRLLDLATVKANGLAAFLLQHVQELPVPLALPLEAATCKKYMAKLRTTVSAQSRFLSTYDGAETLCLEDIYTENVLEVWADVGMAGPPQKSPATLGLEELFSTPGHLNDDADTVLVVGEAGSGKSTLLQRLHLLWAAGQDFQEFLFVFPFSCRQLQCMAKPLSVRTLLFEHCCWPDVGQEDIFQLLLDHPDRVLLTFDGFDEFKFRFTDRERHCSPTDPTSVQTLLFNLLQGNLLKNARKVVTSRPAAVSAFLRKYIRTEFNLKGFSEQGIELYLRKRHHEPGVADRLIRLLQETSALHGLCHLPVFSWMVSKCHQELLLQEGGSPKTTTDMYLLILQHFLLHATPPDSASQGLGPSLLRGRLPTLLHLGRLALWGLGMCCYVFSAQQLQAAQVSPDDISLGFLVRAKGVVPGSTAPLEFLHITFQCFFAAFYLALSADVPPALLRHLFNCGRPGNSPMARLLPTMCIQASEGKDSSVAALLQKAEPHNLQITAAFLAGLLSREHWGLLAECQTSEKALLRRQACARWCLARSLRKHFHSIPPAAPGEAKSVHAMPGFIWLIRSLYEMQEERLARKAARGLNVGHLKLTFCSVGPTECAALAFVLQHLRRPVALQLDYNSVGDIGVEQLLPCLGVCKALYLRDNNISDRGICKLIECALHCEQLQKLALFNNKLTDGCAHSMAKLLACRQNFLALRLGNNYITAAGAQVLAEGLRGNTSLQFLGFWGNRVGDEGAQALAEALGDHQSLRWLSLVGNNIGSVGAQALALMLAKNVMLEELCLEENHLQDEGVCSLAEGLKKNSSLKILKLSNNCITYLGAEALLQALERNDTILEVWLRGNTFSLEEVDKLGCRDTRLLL

[25] = test system: HEK293; assay: NOD2 signaling inhibitors in MDP-stimulated cells, cell-based, uHTS, luminescence (AID 2001); assay type: functional; conditions: Homo sapiens
[26] = test system: HEK293; assay: cells; assay type: functional, cell-based; conditions: Homo sapiens; remark: listed apart in the source
[27] = target: T7, Interleukin-8 (Homo sapiens, UniProt P10145); assay: Dose Response confirmation of uHTS small molecule hits for cystic fibrosis induced NFkb Inhibitors in a TNFa-induced IL8 counterscreen.; assay type: functional; conditions: read-out: IC50_Mean
T7 sequence (P10145 whole entry): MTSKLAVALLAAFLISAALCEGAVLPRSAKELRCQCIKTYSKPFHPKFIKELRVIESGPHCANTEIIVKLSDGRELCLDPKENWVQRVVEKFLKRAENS

[28] = target: T7, Interleukin-8; assay: Dose Response confirmation of uHTS small molecule hits for cystic fibrosis induced NFkb Inhibitors in a PAF-induced IL8 counterscreen.; assay type: functional; conditions: read-out: IC50_Mean
[29] = target: Kappa-type opioid receptor (Homo sapiens, UniProt P41145); assay: Late-stage fluorescence-based cell-based dose response assay for antagonists of kappa opioid receptor 1 (OPRK1).; assay type: functional
Chain of Kappa-type opioid receptor (P41145 whole entry): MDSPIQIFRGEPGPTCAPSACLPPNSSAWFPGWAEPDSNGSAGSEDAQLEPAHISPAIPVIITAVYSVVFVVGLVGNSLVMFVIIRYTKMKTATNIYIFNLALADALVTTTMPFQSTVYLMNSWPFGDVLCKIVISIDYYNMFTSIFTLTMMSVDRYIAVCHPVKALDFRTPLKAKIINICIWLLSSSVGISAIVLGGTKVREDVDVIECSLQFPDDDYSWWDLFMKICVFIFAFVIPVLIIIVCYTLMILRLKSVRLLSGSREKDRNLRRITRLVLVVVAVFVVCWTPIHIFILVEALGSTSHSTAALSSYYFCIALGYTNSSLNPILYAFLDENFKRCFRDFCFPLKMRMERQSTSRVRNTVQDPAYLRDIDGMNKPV

[30] = target: T1, Mu-type opioid receptor; assay: Late-stage results from the probe development effort to identify antagonists of OPRK1: luminescence-based cell-based dose response OPRM1 counterscreen, Set 2.; assay type: functional
[31] = target: Delta-type opioid receptor (Homo sapiens, UniProt P41143); assay: Late-stage results from the probe development effort to identify antagonists of OPRK1: fluorescence-based cell-based dose response OPRD1 counterscreen, Set 2.; assay type: functional
Chain of Delta-type opioid receptor (P41143 whole entry): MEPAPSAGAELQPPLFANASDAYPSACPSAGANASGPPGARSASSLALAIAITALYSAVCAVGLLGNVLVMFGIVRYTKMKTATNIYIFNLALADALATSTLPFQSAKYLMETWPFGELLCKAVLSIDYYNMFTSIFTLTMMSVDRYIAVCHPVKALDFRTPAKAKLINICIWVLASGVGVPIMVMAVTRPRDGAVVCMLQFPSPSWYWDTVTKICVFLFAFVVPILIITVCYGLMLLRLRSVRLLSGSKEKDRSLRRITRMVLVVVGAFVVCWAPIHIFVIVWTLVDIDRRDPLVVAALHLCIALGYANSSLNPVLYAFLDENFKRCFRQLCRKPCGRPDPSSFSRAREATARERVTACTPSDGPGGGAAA

[32] = target: Sphingosine 1-phosphate receptor 1 (Homo sapiens, UniProt P21453); assay: Late-stage counterscreen for antagonists of kappa opioid receptor 1 (OPRK1): fluorescence-based cell-based dose response assay to identify antagonists of Sphingosine 1-Phosphate Receptor 1 (S1P1).; assay type: functional
[33] = target: Arf-GAP with SH3 domain, ANK repeat and PH domain-containing protein 1 (Homo sapiens, UniProt Q9ULH1); assay type: functional;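 also: biochemical fluorescence polarization dose–response screen measuring inhibition of ASAP1; ASAP1 GAP domain stimulating GTP hydrolysis by truncated human ARF1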
Chain of Arf-GAP with SH3 domain, ANK repeat and PH domain-containing protein 1 (Q9ULH1 whole entry, the tested form may be a part): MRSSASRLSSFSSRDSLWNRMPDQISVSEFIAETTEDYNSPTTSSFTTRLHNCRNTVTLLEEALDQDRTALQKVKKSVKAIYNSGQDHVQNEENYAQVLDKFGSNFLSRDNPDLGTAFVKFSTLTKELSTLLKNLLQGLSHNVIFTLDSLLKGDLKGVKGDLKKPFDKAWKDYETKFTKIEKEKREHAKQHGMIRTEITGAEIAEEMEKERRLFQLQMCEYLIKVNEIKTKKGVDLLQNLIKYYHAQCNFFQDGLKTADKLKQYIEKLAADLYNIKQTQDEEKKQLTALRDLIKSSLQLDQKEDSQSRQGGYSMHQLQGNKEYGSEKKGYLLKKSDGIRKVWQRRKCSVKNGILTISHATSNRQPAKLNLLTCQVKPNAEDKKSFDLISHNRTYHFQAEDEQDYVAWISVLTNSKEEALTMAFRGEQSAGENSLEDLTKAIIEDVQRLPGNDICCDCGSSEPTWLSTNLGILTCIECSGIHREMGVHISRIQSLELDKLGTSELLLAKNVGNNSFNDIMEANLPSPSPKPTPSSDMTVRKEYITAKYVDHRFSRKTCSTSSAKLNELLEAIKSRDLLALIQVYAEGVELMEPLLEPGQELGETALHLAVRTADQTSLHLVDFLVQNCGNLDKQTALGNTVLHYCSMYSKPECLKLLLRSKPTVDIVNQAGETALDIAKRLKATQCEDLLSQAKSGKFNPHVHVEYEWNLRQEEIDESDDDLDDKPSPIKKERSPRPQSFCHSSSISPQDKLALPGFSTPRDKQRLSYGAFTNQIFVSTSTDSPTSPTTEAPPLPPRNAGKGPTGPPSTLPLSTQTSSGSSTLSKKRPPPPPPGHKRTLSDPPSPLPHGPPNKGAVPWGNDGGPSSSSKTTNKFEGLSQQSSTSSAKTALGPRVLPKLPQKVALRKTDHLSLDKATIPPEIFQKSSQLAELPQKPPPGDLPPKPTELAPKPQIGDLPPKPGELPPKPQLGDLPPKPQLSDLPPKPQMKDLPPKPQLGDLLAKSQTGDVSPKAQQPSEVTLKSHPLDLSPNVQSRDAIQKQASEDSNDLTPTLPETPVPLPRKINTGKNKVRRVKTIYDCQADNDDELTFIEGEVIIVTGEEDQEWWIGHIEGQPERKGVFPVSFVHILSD

[34] = AlphaScreen signal interference compounds, dose response, artefact control for ARNT-TACC3 interaction inhibitor project, biochemical, luminescence, cherry-pick (AID 651705); assay type: functional;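 also: AlphaScreen bead proximity signal that flags compounds interfering with the detection technology; potency reflects signal decrease which marks the compound as an assay artifact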
[35] = A2780 ovarian cancer cell cytotoxicity, dose response, cytotoxicity control, plate reader, dry powder samples (AID 743046); assay type: functional, cell-based
[36] = cytotoxicity in OVCAR8 ovarian cancer cells, dose response, PAX8 project, cell-based, plate reader, dry powder samples (AID 743197); assay type: functional; conditions: OVCAR-8
[37] = target: Disintegrin and metalloproteinase domain-containing protein 17 (Homo sapiens, UniProt P78536); assay: exosite inhibitors of ADAM17, dose response, biochemical (AID 743260)
[38] = ADAM10 protease inhibitors, dose response, selectivity assay for ADAM17 exosite inhibitor project, biochemical, FRET peptide substrate, recombinant human ADAM10 (AID 743259);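 also: ADAM10 enzyme cleaving a FRET peptide substrate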

T1 sequence (P35372 whole entry): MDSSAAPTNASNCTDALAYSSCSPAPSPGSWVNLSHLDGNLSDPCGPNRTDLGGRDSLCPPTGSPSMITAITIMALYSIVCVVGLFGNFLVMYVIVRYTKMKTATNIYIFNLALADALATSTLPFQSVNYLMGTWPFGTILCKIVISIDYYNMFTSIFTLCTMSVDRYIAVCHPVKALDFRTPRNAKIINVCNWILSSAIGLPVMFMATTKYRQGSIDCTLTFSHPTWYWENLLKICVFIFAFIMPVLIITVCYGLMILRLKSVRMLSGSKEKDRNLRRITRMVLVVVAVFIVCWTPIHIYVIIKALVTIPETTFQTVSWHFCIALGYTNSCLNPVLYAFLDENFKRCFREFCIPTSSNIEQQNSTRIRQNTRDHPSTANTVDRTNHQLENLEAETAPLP

O=C(C[n+]1cc(-c2ccccc2)n2c1CCC2)Nc1nc(-c2ccc(F)cc2)cs1
EC50 [1]: 92.5 µM (inactive) | EC50 [2]: 76.1 µM (inactive)

Cc1noc(C)c1S(=O)(=O)Nc1ccc2c(c1)C(=O)N([C@@H](C)CO)C[C@H](C)[C@@H](CN(C)Cc1ccc(C(F)(F)F)cc1)OCCCC[C@@H](C)O2
AbsAC35 [3]: 101.91 µM

COc1ccc(OC)c(NC(=O)C2C3CCC(C3=C(C)C)C2C(=O)O)c1 (stereo not drawn)
Ki [4]: > 66.7 µM (inactive)

CC(C)(C)c1ccc(COc2ccsc2C(=O)O)cc1
IC50 [5]: > 59.6 µM (inactive) | IC50 [6]: 11.5 µM (active) | IC50 [7]: > 59.6 µM (inactive) | IC50 [8]: > 59.6 µM (inactive) | EC50 [9]: 137 µM (active)

C[C@H](CO)N1C[C@H](C)[C@H](CN(C)C(=O)NC2CCCCC2)Oc2cc(/C=C/c3ccccc3)ccc2S1(=O)=O
AC50 [10]: 19.1 µM (active) | AbsAC35 [11]: 53.47 µM | AC50 [12]: 15.9 µM (active)

COCCNc1nc(NCc2cccc(OC)c2OC)c2sccc2n1
IC50 [13]: 12.8 µM (active) | IC50 [14]: 8.2 µM (active)

Cc1ccnc(NC(=O)c2cccc(S(=O)(=O)N3CCN(c4ccccc4)CC3)c2)c1
IC50 [15]: > 67.5 µM (inactive) | IC50 [16]: > 67.5 µM (inactive) | AC50 [17]: 12.4 µM (active) | AC50 [18]: 14.6 µM (active) | AC50 [19]: > 52 µM (inactive)

Cc1nc2cc(-c3cccc(F)c3)nn2c(N2CCN(C(=O)c3ccco3)CC2)c1C
EC50 [20]: 14.6 µM (inactive)

CCSc1nsc(NC(=O)Nc2cccc(C(C)=O)c2)n1
EC50 [21]: 4.27 µM (active) | IC50 [22]: 1.27 µM (active) | IC50 [23]: > 20 µM (inactive) | EC50 [24]: 6.47 µM (active) | IC50 [25]: 2.39 µM (active) | IC50 [26]: > 20 µM (inactive) | IC50 [27]: 1.77 µM (active) | IC50 [28]: 5.42 µM (active)

CCOC(=O)c1ccc(N2CC3CCCCN3C2c2cccc(OC)c2O)cc1 (stereo not drawn)
IC50 [29]: 6.85 µM (active) | IC50 [30]: > 50 µM (inactive) | IC50 [31]: > 50 µM (inactive) | IC50 [32]: > 50 µM (inactive)

O=C(Cn1cncc1-c1ccc([N+](=O)[O-])cc1)Nc1cccc2ccccc12
IC50 [33]: 28.1 µM (inactive)

O=C(Nc1ccc(F)cc1)c1nc[nH]c1C(=O)O
AC50 [34]: 105 µM (active)

COc1ccc(-c2cn(CC[C@H]3CC[C@@H](NC(=O)Cc4ccccn4)[C@@H](CO)O3)nn2)cc1
AC50 [35]: 0.315 µM (active) | AC50 [36]: > 70 µM (inactive)

COC(=O)C1=C(c2cccc(OCc3ccccc3)c2)C[C@@H]2CC[C@H]1N2C(=O)NCCOc1ccc(OC)cc1
IC50 [37]: > 69.5 µM (inactive) | IC50 [38]: 12.1 µM (inactive)
